Where only a bound is given, the exact number is not on record here.

T1 sequence (P49674 whole entry): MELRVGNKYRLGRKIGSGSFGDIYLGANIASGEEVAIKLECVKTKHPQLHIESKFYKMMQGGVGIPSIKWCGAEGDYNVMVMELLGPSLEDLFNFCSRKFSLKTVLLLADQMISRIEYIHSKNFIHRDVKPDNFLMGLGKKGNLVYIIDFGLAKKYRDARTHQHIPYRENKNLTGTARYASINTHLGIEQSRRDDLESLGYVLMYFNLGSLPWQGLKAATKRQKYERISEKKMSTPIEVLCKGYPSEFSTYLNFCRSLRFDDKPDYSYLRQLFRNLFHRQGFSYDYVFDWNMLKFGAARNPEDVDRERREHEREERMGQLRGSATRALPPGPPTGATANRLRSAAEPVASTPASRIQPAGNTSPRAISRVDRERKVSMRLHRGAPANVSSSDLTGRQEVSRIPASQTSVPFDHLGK

The assay addresses T1, Casein Kinase Iε (Homo sapiens, UniProt P49674).
T1 construct: made in house
The experiment in a line: Casein Kinase Epsilon 33P-ATP Filter Plate Assay. Type of assay: biochemical. The source says: Casein Kinase Epsilon ^33P-ATP Filter Plate Assay for Screening CKIε Inhibitors
Purpose: This assay measures the ability of compounds to inhibit the phosphorylation of the substrate casein by the enzyme casein kinase 1ε using an in vitro ^33P-ATP filtration assay. […] Materials:
Equipment: • Beckman Biomek 2000 Liquid Handling Robot • Beckman Multimek 96 Automated 96 Channel Pipettor • Millipore Vacuum Manifold Basic Kit # MAVM0960R • Titertek Multidrop Liquid Dispenser • Packard TopCount NXT Liquid Scintillation Counter
Enzyme: • Casein Kinase 1ε final concentration 0.58 mg/ml obtained from fermentation and purification processes as are well known to one skilled in the art. The above are stored as 100 μL aliquots at minus 80° C.
Compounds: • Supply compounds for testing as frozen 10 mM compound stock dissolved in 100% DMSO. Assay Conditions:
Final total assay volume per well is equal to 50 μL that one prepares as follows: • 5 μL of diluted compound stock (10, 1, 0.1, 0.01 or 0.001 μM), • 5 μL of dephosphorylated casein final concentration 0.2 μg/μL, • 20 μL of CK1ε final concentration 3 ng/μL, and • 20 μL of γ-^33P-ATP final concentration 0.02 μCi/μL mixed with cold ATP (10 μM final). Methodology: • 1. Prepare 500 mL of fresh assay buffer: 50 mM Tris pH 7.5, 10 mM MgCl2, 2 mM DTT and 1 mM EGTA • 2. Obtain compounds to be evaluated as 10 μL of 10 mM stock dissolved in 100% DMSO. Use a Biomek 2000 liquid handling robot, make serial dilutions to yield 10, 1, 0.1, 0.01 and 0.001 μM final compound dilutions added as 5 μL additions to Falcon U bottom plates. […] A routine screening assay will consist of 32 compounds, which equals 4 assay plates. • 3. Assay plate maps are set up according to the following pattern CK1ePlateMap.xls
• 4. Add 5 μL of compound as indicated, then add 5 μL of dephosphorylated casein (dissolved in distilled H20)(0.2 μg/μL) and 20 μL CK1ε (3 ng/μL) to the appropriate wells. • 5. Finally add 20 μL γ-^33P-ATP (0.02 μCi/μL)/10 μM cold ATP (equals approximately 2×10^6 CPM per well). • 6. Vortes the Falcon U-Bottom assay plate containing the above 50 μL reaction volume and then incubate at room temperature for 2 hours. • 7. At the end of 2 hours, stop the reaction by the addition of 65 μL of ice cold 2 mM cold ATP (made up in assay buffer) to the assay plates using a Beckman Multimek. • 8. At the same time add 25 μL 100% ice cold TCA made up in distilled H20 to a matching number of Millipore MAPH filter plates. • 9. Using a handheld 8-channel pipettor, transfer 100 μL of the reaction mixture from the Falcon U-Bottom Plate to the Millipore MAPH filter plates presoaked with TCA. • 10. Mix the Millipore MAPH filter plates gently and allow to sit at room temperature for at least 30 minutes to precipitate the proteins. • 11. After 30 minutes, place the filter plates on a Millipore vacuum manifold and filter at no more than 8 mm Hg as the MAPH filters tend to “air lock” at higher vacuum settings. • 12. Wash the filter plates sequentially and filter with 2×150 μL 20% TCA, 2×150 μL 10% TCA and 2×150 μL 5% TCA (total of 6 washes per plate/900 μL per well). • 13. Allow the plates to dry overnight at room temperature. The next day add 40 μL Packard Microscint-20 Scintillation Fluid per well using a Titertek Multidrop dispenser; seal the plates and count for 2 minutes/well in a Packard Topcount NXT Scintillation Counter (to provide CPM values/well). Calculation: • 1. Import Counts Per Minute (CPM) data into a proprietary data calculation and archiving database (Activity Base by IDBS version 5.0). • 2. Column 1 for each plate reflects total phosphorylation activity of the enzyme in the absence of any inhibiting compound and thus represents 100%. Column 12 reflects any nonspecific phosphorylation/retained radioactivity activity in the absence of inhibiting compound and enzyme.
On to `COc1cccc(Sc2c(C(N)=O)[nH]c3ccsc23)c1` [Iq, 6-(3-Methoxy-phenylsulfanyl)-4H-thieno[3,2-b]pyrrole-5-carboxylic acid amide], for which the inhibition constant (Ki) (commonly a measure of affinity in units of concentration, obtained from inhibition or displacement) was 0.038 µM.
Then `NC(=O)c1[nH]c2ccsc2c1Sc1ccc(Cl)cc1` [Ic, 6-(4-Chlorophenyl-sulfanyl)-4H-thieno[3,2-b]pyrrole-5-carboxylic acid amide], with more than 10 µM; and `NC(=O)c1[nH]c2ncsc2c1Sc1ccccc1` [Iv, 6-Phenylsulfanyl-4H-pyrrolo[2,3-d]thiazole-5-carboxylic acid amide], with 4.55 µM.
`Cc1ccc(Sc2c(C(N)=O)[nH]c3ccsc23)cc1` [If, 6-p-Tolylsulfanyl-4H-thieno[3,2-b]pyrrole-5-carboxylic acid amide] showed a Ki of 3.09 µM.
Then `NC(=O)c1[nH]c2sccc2c1Sc1cccs1` [IIf, 4-(Thiophen-2-yl-sulfanyl)-6H-thieno[2,3-b]pyrrole-5-carboxylic acid amide], with 1.45 µM; and `Cc1nc2c(Sc3cccc(OC(F)(F)F)c3)c(C(N)=O)[nH]c2s1` [IIp, 6-(3-Trifluoromethoxy-phenylsulfanyl)-2-methyl-4H-pyrrolo[3,2-d]thiazole-5-carboxylic acid amide], with 4.03 µM.
Then `Cc1cccc(Sc2c(C(N)=O)[nH]c3sccc23)c1` [IIk, 4-(3-Methylphenyl-sulfanyl)-6H-thieno[2,3-b]pyrrole-5-carboxylic acid amide], with 0.0706 µM.
Then `COc1cccc(Sc2c(C(N)=O)[nH]c3sc(C)nc23)c1` [IIm, 6-(3-Methoxyphenyl-sulfanyl)-2-methyl-4H-pyrrolo[3,2-d]thiazole-5-carboxylic acid amide], with 0.068 µM; and `NC(=O)c1[nH]c2ccsc2c1Sc1cccs1` [Ig, 6-(Thiophen-2-yl-sulfanyl)-4H-thieno[3,2-b]pyrrole-5-carboxylic acid amide], with 0.915 µM.
In turn, `NC(=O)c1[nH]c2ccsc2c1Sc1cccc(OC(F)(F)F)c1` [Iu, 6-(3-Trifluoromethoxy-phenylsulfanyl)-4H-thieno[3,2-b]pyrrole-5-carboxylic acid amide] came in with a Ki of 0.562 µM.
Under `Cc1cccc(Sc2c(C(N)=O)[nH]c3ccsc23)c1` [Ij, 6-m-Tolylsulfanyl-4H-thieno[3,2-b]pyrrole-5-carboxylic acid amide] stands 0.116 µM; under `NC(=O)c1[nH]c2sccc2c1Sc1ccncc1` [IId, 4-(Pyridin-4-ylsulfanyl)-6H-thieno[2,3-b]-pyrrole-5-carboxylic acid amide], 1.07 µM; under `NC(=O)c1[nH]c2ccsc2c1Sc1ccccc1F` [It, 6-(2-Fluoro-phenylsulfanyl)-4H-thieno[3,2-b]pyrrole-5-carboxylic acid amide], 0.425 µM.
`COc1cccc(Sc2nc3c(Sc4cccc(OC)c4)c(C(N)=O)[nH]c3s2)c1` [IIr, 2,6-Bis-(3-methoxy-phenylsulfanyl)-4H-pyrrolo[3,2-d]thiazole-5-carboxylic acid amide] gave a Ki of 0.333 µM.
Then `NC(=O)c1[nH]c2ccsc2c1Sc1cccc(Cl)c1Cl` [Il, 6-(2,3-Dichloro-phenylsulfanyl)-4H-thieno[3,2-b]pyrrole-5-carboxylic acid amide], with 0.324 µM; and `NC(=O)c1[nH]c2ncsc2c1Sc1cccc(F)c1` [Iw, 6-(3-Fluoro-phenylsulfanyl)-4H-pyrrolo[2,3-d]thiazole-5-carboxylic acid amide], with 2.03 µM.
Under `CCc1ccccc1Sc1c(C(N)=O)[nH]c2ccsc12` [In, 6-(2-Ethylphenylsulfanyl)-4H-thieno[3,2-b]pyrrole-5-carboxylic acid amide] stands 0.238 µM; under `NC(=O)c1[nH]c2ccsc2c1Sc1cccc(F)c1` [Ib, 6-(3-Fluorophenyl-sulfanyl)-4H-thieno[3,2-b]pyrrole-5-carboxylic acid amide], 0.157 µM; under `NC(=O)c1[nH]c2ccsc2c1Sc1cc(Cl)cc(Cl)c1` [Ih, 6-(3,5-Dichloro-phenylsulfanyl)-4H-thieno[3,2-b]pyrrole-5-carboxylic acid amide], 0.071 µM.
On to `NC(=O)c1[nH]c2ncsc2c1Sc1ccccn1` [Ix, 6-(Pyridin-2-ylsulfanyl)-4H-pyrrolo[2,3-d]thiazole-5-carboxylic acid amide], for which affinity was put at a Ki of 1.75 µM.
Under `NC(=O)c1[nH]c2ccsc2c1Sc1ccncc1` [Ii, 6-(Pyridin-4-ylsulfanyl)-4H-thieno[3,2-b]pyrrole-5-carboxylic acid amide] stands 1.68 µM.
Under `NC(=O)c1[nH]c2sccc2c1Sc1cccc(Cl)c1` [IIj, 4-(3-Chlorophenyl-sulfanyl)-6H-thieno[2,3-b]pyrrole-5-carboxylic acid amide] stands 0.112 µM; under `NC(=O)c1[nH]c2sccc2c1Sc1cc(Cl)cc(Cl)c1` [IIe, 4-(3,5-Dichlorophenyl-sulfanyl)-6H-thieno[2,3-b]pyrrole-5-carboxylic acid amide], 0.109 µM.
Then `NC(=O)c1[nH]c2sc(Sc3ccccc3)nc2c1Sc1ccccc1` [IIq, 2,6-Bis-phenylsulfanyl-4H-pyrrolo[3,2-d]thiazole-5-carboxylic acid amide], with 0.334 µM.
In the case of `NC(=O)c1[nH]c2ccsc2c1Sc1cccc(Br)c1` [Io, 6-(3-Bromo-phenylsulfanyl)-4H-thieno-[3,2-b]pyrrole-5-carboxylic acid amide], the Ki amounted to 0.0787 µM.
Then `COc1ccccc1Sc1c(C(N)=O)[nH]c2ccsc12` [Ir, 6-(2-Methoxy-phenylsulfanyl)-4H-thieno[3,2-b]pyrrole-5-carboxylic acid amide], with 0.331 µM; and `NC(=O)c1[nH]c2ccsc2c1Sc1ccccn1` [Ie, 6-(Pyridin-2-ylsulfanyl)-4H-thieno[3,2-b]pyrrole-5-carboxylic acid amide], with 0.159 µM.
Then `NC(=O)c1[nH]c2sccc2c1Sc1ccccn1` [IIa, 4-(pyridin-2-ylsulfanyl)-6H-thieno[2,3-b]pyrrole-5-carboxylic acid amide], with 0.064 µM; and `NC(=O)c1[nH]c2ccsc2c1Sc1cc(Cl)ccc1Cl` [Im, 6-(2,5-Dichloro-phenylsulfanyl)-4H-thieno[3,2-b]pyrrole-5-carboxylic acid amide], with 1.27 µM; and `COc1cccc(Sc2c(C(N)=O)[nH]c3sccc23)c1` [IIh, 4-(3-Methoxyphenyl-sulfanyl)-6H-thieno[2,3-b]pyrrole-5-carboxylic acid amide], with 0.0247 µM.
Under `NC(=O)c1[nH]c2ccsc2c1Sc1ccccc1C(F)(F)F` [Is, 6-(2-Trifluoromethyl-phenylsulfanyl)-4H-thieno[3,2-b]pyrrole-5-carboxylic acid amide] stands 0.481 µM; under `NC(=O)c1[nH]c2ccsc2c1Sc1ccccc1` [Ia, 6-Phenylsulfanyl-4H-thieno[3,2-b]pyrrole-5-carboxylic acid amide], 0.544 µM; under `Cc1cc(C)cc(Sc2c(C(N)=O)[nH]c3ccsc23)c1` [Ip, 6-(3,5-Dimethylphenylsulfanyl)-4H-thieno[3,2-b]pyrrole-5-carboxylic acid amide], 0.357 µM.
With `Cc1ccccc1Sc1c(C(N)=O)[nH]c2ccsc12` [Ik, 6-o-Tolylsulfanyl-4H-thieno[3,2-b]pyrrole-5-carboxylic acid amide], the Ki was found to be 0.468 µM.

The values above are taken from US7652046B2, “Substituted thienopyrrole carboxylic acid amides, pyrrolothiazole carboxylic acid amides, and related analogs as inhibitors of casein kinase I” (Aventis Pharmaceuticals Inc., priority 2004, dated 2010).
